Measured values as given in ChEMBL document CHEMBL1201862, “PubChem BioAssay data set” (2004).
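In this assay, cells in 96-well plates receive the compound at five concentrations for 48 hours. Endpoints are linearly interpolated between the surrounding concentrations. GI50 = concentration required for 50% inhibition of growth.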 Calls of active or inactive are those of the source. No stated cut-off is given here; in the data, active = GI50 up to about 1.1 µM and inactive = higher.

What was measured:
Assay in all cases: NCI tumour cell line growth inhibition, 48 h
786-0 = test system: 786-0
A498 = test system: A498
A549 = test system: A549
ACHN = test system: ACHN
BT-549 = test system: BT-549
CAKI-1 = test system: CAKI-1
CCRF-CEM = test system: CCRF-CEM
COLO 205 = test system: COLO 205
DU-145 = test system: DU-145
EKVX = test system: EKVX
HCT-116 = test system: HCT-116
HCT-15 = test system: HCT-15
HL-60 = test system: HL-60
HOP-62 = test system: HOP-62
HOP-92 = test system: HOP-92
HT-29 = test system: HT-29
Hs-578T = test system: Hs-578T
IGROV-1 = test system: IGROV-1
K562 = test system: K562
KM12 = test system: KM12
M14 = test system: M14
MCF7 = test system: MCF7
MDA-MB-231 = test system: MDA-MB-231
MDA-MB-435 = test system: MDA-MB-435
MDA-N = test system: MDA-N
MOLT-4 = test system: MOLT-4
Malme-3M = test system: Malme-3M
NCI-H226 = test system: NCI-H226
NCI-H23 = test system: NCI-H23
NCI-H460 = test system: NCI-H460
NCI-H522 = test system: NCI-H522
NCI/ADR-RES = test system: NCI/ADR-RES
OVCAR-3 = test system: OVCAR-3
OVCAR-4 = test system: OVCAR-4
OVCAR-5 = test system: OVCAR-5
OVCAR-8 = test system: OVCAR-8
PC-3 = test system: PC-3
RPMI-8226 = test system: RPMI-8226
RXF 393 = test system: RXF 393
SF-268 = test system: SF-268
SF-295 = test system: SF-295
SF-539 = test system: SF-539
SK-MEL-28 = test system: SK-MEL-28
SK-MEL-2 = test system: SK-MEL-2
SK-MEL-5 = test system: SK-MEL-5
SK-OV-3 = test system: SK-OV-3
SN12C = test system: SN12C
SNB-19 = test system: SNB-19
SR = test system: SR
T47D = test system: T47D
TK-10 = test system: TK-10
U-251 = test system: U-251
UACC-257 = test system: UACC-257
UACC-62 = test system: UACC-62
UO-31 = test system: UO-31

Question: Which results are given for Cc1cc(S(=O)(=O)N/C(=C(\C#N)C(=O)c2ccccc2)[n+]2ccc(N(C)C)cc2)c([S-])cc1Cl?
Answer: GI50 (786-0): > 100 µM (inactive); GI50 (A498): 32.4 µM (inactive); GI50 (A549): > 100 µM (inactive); GI50 (ACHN): > 100 µM (inactive); GI50 (BT-549): > 100 µM (inactive); GI50 (CAKI-1): > 100 µM (inactive); GI50 (CCRF-CEM): > 100 µM (inactive); GI50 (COLO 205): > 100 µM (inactive); GI50 (DU-145): > 10 µM (inactive); GI50 (EKVX): 32 µM (inactive); GI50 (HCT-116): 37.2 µM (inactive); GI50 (HCT-15): > 100 µM; GI50 (HL-60): > 100 µM (inactive); GI50 (HOP-62): > 100 µM (inactive); GI50 (HOP-92): 0.33 µM (active); GI50 (HT-29): > 100 µM (inactive); GI50 (Hs-578T): > 100 µM (inactive); GI50 (IGROV-1): 88.3 µM (inactive); GI50 (K562): > 100 µM (inactive); GI50 (KM12): > 100 µM (inactive); GI50 (M14): > 100 µM (inactive); GI50 (MCF7): > 100 µM (inactive); GI50 (MDA-MB-231): > 100 µM (inactive); GI50 (MDA-MB-435): > 100 µM (inactive); GI50 (MDA-N): > 100 µM (inactive); GI50 (MOLT-4): 60.1 µM (inactive); GI50 (Malme-3M): 20.9 µM (inactive); GI50 (NCI-H226): > 100 µM (inactive); GI50 (NCI-H23): > 100 µM (inactive); GI50 (NCI-H460): > 100 µM (inactive); GI50 (NCI-H522): 35.6 µM (inactive); GI50 (NCI/ADR-RES): > 100 µM (inactive); GI50 (OVCAR-3): > 100 µM (inactive); GI50 (OVCAR-4): 69.8 µM (inactive); GI50 (OVCAR-5): > 100 µM (inactive); GI50 (OVCAR-8): > 100 µM (inactive); GI50 (PC-3): > 100 µM (inactive); GI50 (RPMI-8226): > 100 µM (inactive); GI50 (RXF 393): > 100 µM (inactive); GI50 (SF-268): > 100 µM (inactive); GI50 (SF-295): > 100 µM (inactive); GI50 (SF-539): > 100 µM (inactive); GI50 (SK-MEL-28): > 100 µM (inactive); GI50 (SK-MEL-2): 83 µM (inactive); GI50 (SK-MEL-5): > 100 µM (inactive); GI50 (SK-OV-3): > 100 µM (inactive); GI50 (SN12C): > 100 µM (inactive); GI50 (SNB-19): > 100 µM (inactive); GI50 (SR): 64.9 µM (inactive); GI50 (T47D): > 100 µM (inactive); GI50 (TK-10): 53.6 µM (inactive); GI50 (U-251): > 100 µM (inactive); GI50 (UACC-257): > 100 µM (inactive); GI50 (UACC-62): > 100 µM (inactive); GI50 (UO-31): > 100 µM (inactive)
